Test results as given in patent publication US20160158236A1, “PHARMACEUTICAL COMPOSITION COMPRISING A TRPA1 ANTAGONIST AND A STEROID” (GLENMARK PHARMACEUTICALS S.A., priority 2011, published 2016).

Columns and labels:
[1] = system: ovalbumin sensitized female Balb/C mice; assay: Ovalbumin induced inflammation in ovalbumin sensitized mice (Compound 52 and prednisolone), BAL cell counts; assay type: in vivo; settings: 1 mg/Kg p.o. (combination: 1 mg/Kg of each compound); BAL 24 hours after ovalbumin challenge
Protocol: Sensitized mice were randomly assigned to different treatment groups. […] Animals were administered Compound 52 orally 24 hrs before first ovalbumin challenge and 2 hrs before ovalbumin challenge from Day-11 to 13. Animals were administered Prednisolone orally 24 hrs before first ovalbumin challenge and 2 hrs before ovalbumin challenge from Day-11 to 13. The animals were divided into groups as per Table 2.
Broncho Alveolar Lavage (BAL) was performed at 24 hours after challenge with ovalbumin. Animals were anesthetized with an overdose of urethane, trachea was exposed and BAL was performed 4 times using 0.3 mL PBS. All aspirates of BAL were pooled and total number of cells determined using a hemocytometer. The BAL was centrifuged, and the cell pellet was used for preparation of smears. Slides were stained with Giemsa stain and a differential cell count of 500 cells based on standard morphology was performed manually.
Calculations: The total number of eosinophils in each BAL sample was calculated using the formula: […]
Percent inhibition of eosinophils was calculated using the following formula: […]

human TRPA1 receptor = molecular target: T1, human TRPA1 receptor (Homo sapiens, UniProt O75762); assay: Inhibition of AITC induced cellular uptake of radioactive calcium in human TRPA1 expressing CHO cells; assay type: cell-based; settings: read-out: hTRPA1 IC50 values
T1 construct: expressed in transfected cells; host or cells: CHO cells
Protocol: Test compound solution is prepared in a suitable solvent. Human TRPA1 expressing CHO cells are grown in suitable medium. Cells are treated with test compounds followed by addition of AITC. Cells are washed, lysed and the radioactivity in the lysate is measured in Packard Top count after addition of liquid scintillant.
The concentration response curves for compounds are plotted as a % of maximal response obtained in the absence of test antagonist, and the IC50 values are calculated from such concentration response curve by nonlinear regression analysis using GraphPad PRISM software.

T1 sequence (O75762 whole entry): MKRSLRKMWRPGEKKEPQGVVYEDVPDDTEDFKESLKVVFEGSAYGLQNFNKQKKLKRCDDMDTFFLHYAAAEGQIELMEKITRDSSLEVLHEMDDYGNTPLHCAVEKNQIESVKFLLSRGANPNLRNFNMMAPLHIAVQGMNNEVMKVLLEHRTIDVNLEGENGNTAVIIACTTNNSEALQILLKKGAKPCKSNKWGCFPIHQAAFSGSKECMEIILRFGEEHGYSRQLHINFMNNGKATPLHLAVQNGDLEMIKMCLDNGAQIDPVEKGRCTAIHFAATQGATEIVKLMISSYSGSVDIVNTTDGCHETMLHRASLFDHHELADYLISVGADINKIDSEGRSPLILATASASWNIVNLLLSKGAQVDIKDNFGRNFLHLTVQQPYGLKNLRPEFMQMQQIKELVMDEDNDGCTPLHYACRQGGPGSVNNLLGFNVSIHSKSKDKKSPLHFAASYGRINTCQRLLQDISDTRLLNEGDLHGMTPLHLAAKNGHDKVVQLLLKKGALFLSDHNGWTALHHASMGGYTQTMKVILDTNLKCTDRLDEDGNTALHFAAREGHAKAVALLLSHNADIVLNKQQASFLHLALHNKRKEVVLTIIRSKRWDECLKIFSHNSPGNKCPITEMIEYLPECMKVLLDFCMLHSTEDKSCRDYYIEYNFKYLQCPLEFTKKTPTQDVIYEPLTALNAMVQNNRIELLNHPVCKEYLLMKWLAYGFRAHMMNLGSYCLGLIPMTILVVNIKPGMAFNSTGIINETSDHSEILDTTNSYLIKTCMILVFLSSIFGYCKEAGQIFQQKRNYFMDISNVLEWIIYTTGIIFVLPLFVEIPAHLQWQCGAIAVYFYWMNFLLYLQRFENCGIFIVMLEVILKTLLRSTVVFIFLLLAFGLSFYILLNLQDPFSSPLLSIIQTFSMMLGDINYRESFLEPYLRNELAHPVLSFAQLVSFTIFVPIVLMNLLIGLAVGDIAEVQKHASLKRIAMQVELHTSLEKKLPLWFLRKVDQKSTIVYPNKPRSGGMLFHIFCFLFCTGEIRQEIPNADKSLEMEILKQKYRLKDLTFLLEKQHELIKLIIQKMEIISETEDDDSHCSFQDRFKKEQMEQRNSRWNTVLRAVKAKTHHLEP

| Compound | % Inhibition of cell in BALf [1] | % Inhibition of eosinophils in BALf [1] | Total cell number in BALf [1] | Total eosinophils in BALf [1] | IC50 (human TRPA1 receptor) |
| --- | --- | --- | --- | --- | --- |
| Cn1c(=O)c2c(CC(=O)Nc3nc(-c4ccc(F)c(C(F)(F)F)c4F)cs3)csc2n(C)c1=O [Compound 52] | 10% | 21% | 12.2 ± 0.5 | 5.8 ± 0.5 |  |
| CC(C)C(N)C(=O)OCn1c(-c2ccc(F)c(C(F)(F)F)c2F)csc1=NC(=O)Cc1csc2c1c(=O)n(C)c(=O)n2C (stereo not drawn) [Compound 97] |  |  |  |  | 21.9 nM |
| C[C@]12C=CC(=O)C=C1CC[C@@H]1[C@@H]2[C@@H](O)C[C@@]2(C)[C@H]1CC[C@]2(O)C(=O)CO [Prednisolone, reference compound] | 21% | 24% | 10.8 ± 1.0 | 5.6 ± 0.7 |  |
